Data published in patent publication US9029553B2, “2-anilino nicotinyl linked 2-amino benzothiazole conjugates and process for the preparation thereof” (Council of Scientific & Industrial Research, priority 2011, dated 2015).

Tests used:
Assay in all cases: NCI SRB GI50 screen
Assay type in all cases: cell-based
[1] = test system: BT-549; details: Homo sapiens, Breast, 48 hrs exposure, read-out: Growth Inhibition GI50 BT-549
Description: (§1) 2-Anilino nicotinyl linked 2-amino benzothiazole conjugates of formula 9-12 were tested against fifty nine human cancer cell lines derived from nine cancer types (leukemia, non-small cell lung cancer, colon cancer, CNS cancer, melanoma, ovarian cancer, renal cancer, prostate cancer and breast cancer) as per NCI protocol. For each compound, dose response curves for individual cell lines were measured at a minimum of five concentrations at 10 fold dilutions. A protocol of 48 hrs continuous drug exposure was used, and a sulforhodamine B (SRB) protein assay was used to estimate cell viability or growth.

[2] = test system: HCT-15; details: Homo sapiens, Colon, 48 hrs exposure, read-out: Growth Inhibition GI50 HCT-15
Description: as §1

[3] = test system: MOLT-4; details: Homo sapiens, Leukemia, 48 hrs exposure, read-out: Growth Inhibition GI50 MOLT-4
Description: as §1

[4] = test system: 786-0; details: Homo sapiens, Renal, 48 hrs exposure, read-out: Growth Inhibition GI50 786-0
Description: as §1

[5] = test system: K-562; details: Homo sapiens, K562; Leukemia, 48 hrs exposure; read-out: Growth Inhibition GI50 K-562
Description: as §1

[6] = test system: A549/ATCC; details: Homo sapiens, Non-small lung, 48 hrs exposure, read-out: Growth Inhibition GI50 A549/ATCC
Description: as §1

[7] = test system: SK-MEL-2; details: Homo sapiens, Melanoma, 48 hrs exposure, read-out: Growth Inhibition GI50 SK-MEL-2
Description: as §1

[8] = test system: NCI-H226; details: Homo sapiens, Non-small lung, 48 hrs exposure, read-out: Growth Inhibition GI50 NCI-H226
Description: as §1

[9] = test system: CAKI-1; details: Homo sapiens, Renal, 48 hrs exposure, read-out: Growth Inhibition GI50 CAKI-1
Description: as §1

[10] = test system: NCI-H322M; details: Homo sapiens, Non-small lung, 48 hrs exposure, read-out: Growth Inhibition GI50 NCI-H322M
Description: as §1

[11] = test system: MDA-MB-468; details: Homo sapiens, Breast, 48 hrs exposure, read-out: Growth Inhibition GI50 MDA-MB-468
Description: as §1

[12] = test system: PC-3; details: Homo sapiens, Prostate, 48 hrs exposure, read-out: Growth Inhibition GI50 PC-3
Description: as §1

[13] = test system: SK-MEL-28; details: Homo sapiens, Melanoma, 48 hrs exposure, read-out: Growth Inhibition GI50 SK-MEL-28
Description: as §1

[14] = test system: SF-539; details: Homo sapiens, CNS, 48 hrs exposure, read-out: Growth Inhibition GI50 SF-539
Description: as §1

[15] = test system: OVCAR-4; details: Homo sapiens, Ovarian, 48 hrs exposure, read-out: Growth Inhibition GI50 OVCAR-4
Description: as §1

[16] = test system: HOP-62; details: Homo sapiens, Non-small lung, 48 hrs exposure, read-out: Growth Inhibition GI50 HOP-62
Description: as §1

[17] = test system: HT29; details: Homo sapiens, HT-29; Colon, 48 hrs exposure; read-out: Growth Inhibition GI50 HT29
Description: as §1

[18] = test system: SR; details: Homo sapiens, Leukemia, 48 hrs exposure, read-out: Growth Inhibition GI50 SR
Description: as §1

[19] = test system: MDA-MB-435; details: Homo sapiens, Melanoma, 48 hrs exposure, read-out: Growth Inhibition GI50 MDA-MB-435
Description: as §1

[20] = test system: TK-10; details: Homo sapiens, Renal, 48 hrs exposure, read-out: Growth Inhibition GI50 TK-10
Description: as §1

[21] = test system: T-47D; details: Homo sapiens, T47D; Breast, 48 hrs exposure; read-out: Growth Inhibition GI50 T-47D
Description: as §1

[22] = test system: SN12C; details: Homo sapiens, Renal, 48 hrs exposure, read-out: Growth Inhibition GI50 SN12C
Description: as §1

[23] = test system: MCF7; details: Homo sapiens, Breast, 48 hrs exposure, read-out: Growth Inhibition GI50 MCF7
Description: as §1

[24] = test system: COLO 205; details: Homo sapiens, Colon, 48 hrs exposure, read-out: Growth Inhibition GI50 COLO 205
Description: as §1

[25] = test system: OVCAR-3; details: Homo sapiens, Ovarian, 48 hrs exposure, read-out: Growth Inhibition GI50 OVCAR-3
Description: as §1

[26] = test system: Sw-620; details: Homo sapiens, Colon, 48 hrs exposure, read-out: Growth Inhibition GI50 SW-620
Description: as §1

[27] = test system: NCI-H23; details: Homo sapiens, Non-small lung, 48 hrs exposure, read-out: Growth Inhibition GI50 NCI-H23
Description: as §1

[28] = test system: OVCAR-8; details: Homo sapiens, Ovarian, 48 hrs exposure, read-out: Growth Inhibition GI50 OVCAR-8
Description: as §1

[29] = test system: SF-295; details: Homo sapiens, CNS, 48 hrs exposure, read-out: Growth Inhibition GI50 SF-295
Description: as §1

[30] = test system: HL-60(TB); details: Homo sapiens, Leukemia, 48 hrs exposure, read-out: Growth Inhibition GI50 HL-60(TB)
Description: as §1

[31] = test system: HS 578T; details: Homo sapiens, Breast, 48 hrs exposure, read-out: Growth Inhibition GI50 HS 578T
Description: as §1

Structure (SMILES) | GI50 [1] [nM] | GI50 [2] [nM] | GI50 [3] [nM] | GI50 [4] [nM] | GI50 [5] [nM] | GI50 [6] [nM] | GI50 [8] [nM] | GI50 [9] [nM] | GI50 [10] [nM] | GI50 [11] [nM] | GI50 [12] [nM] | GI50 [13] [nM] | GI50 [14] [nM] | GI50 [15] [nM] | GI50 [16] [nM] | GI50 [17] [nM] | GI50 [18] [nM] | GI50 [19] [nM] | GI50 [21] [nM] | GI50 [22] [nM] | further results
O=C(Nc1nc2ccc(F)cc2s1)c1cccnc1Nc1ccc(Cl)cc1Cl [Compound 10, N3-(6-fluoro-1,3-benzothiazol-2-yl)-2-(2,4-dichloroanilino)nicotinamide] | 3010 | 3740 | 2270 | 3770 | 1780 | 2960 | 2700 | 1500 | 3240 | 1880 | 2110 | 4090 | 4020 | 2960 | 3940 | 2980 | 3030 | 3030 | 1930 | 2320 | GI50 [7]: 1740 nM; GI50 [20]: 3050 nM; GI50 [23]: 3070 nM; GI50 [24]: 1900 nM; GI50 [25]: 2440 nM; GI50 [26]: 3400 nM; GI50 [27]: 2340 nM; GI50 [28]: 2780 nM; GI50 [29]: 1830 nM; GI50 [30]: 1830 nM; GI50 [31]: 3250 nM
COc1ccc2nc(NC(=O)c3cccnc3Nc3cc(OC)c(OC)c(OC)c3)sc2c1 [Compound 12, N-3-(6-methoxy-1,3-benzothiazol-2-yl)-2-(3,4,5-trimethoxyanilino) nicotinamide] | 11600 | 11200 | 24200 | 5600 | 8910 | 7380 | 10700 | 16400 | 17300 | 17800 | 6670 | 7880 | 2810 | 15000 | 6330 | 17700 | 2310 | 1850 | 5060 | 11700 | GI50 [20]: 4310 nM; GI50 [23]: 510 nM; GI50 [24]: 17400 nM; GI50 [25]: 8920 nM; GI50 [26]: 11800 nM; GI50 [27]: 5380 nM; GI50 [28]: 6520 nM; GI50 [29]: 8340 nM; GI50 [30]: 32300 nM; GI50 [31]: 5770 nM
COc1cc(Nc2ncccc2C(=O)Nc2nc3ccc(F)cc3s2)cc(OC)c1OC [Compound 11, N3-(6-fluoro-1,3-benzothiazol-2-yl)-2-(3,4,5-trimethoxyanilino)nicotinamide] | 2630 | 4380 | 2110 | 5510 | 1680 | 3110 | 2950 | 3150 | 3710 | 1220 | 2730 | 4330 | 3840 | 2730 | 5780 | 5150 | 2970 | 2870 | 2300 | 4730 | GI50 [7]: 2340 nM; GI50 [23]: 3230 nM; GI50 [24]: 3040 nM; GI50 [25]: 2770 nM; GI50 [27]: 2270 nM; GI50 [28]: 3620 nM; GI50 [29]: 2550 nM; GI50 [30]: 1860 nM; GI50 [31]: 2570 nM
O=C(Nc1nc2ccc(F)cc2s1)c1cccnc1Nc1ccc(Cl)cc1 [Compound 9, N3-(6-fluoro-1,3-benzothiazol-2-yl)-2-(4-chloroanilino)nicotinamide] | 2050 | 3320 | 2220 | 2780 | 726 | 2320 | 2320 | 2890 | 3250 | 1610 | 2130 | 3510 | 2700 | 2920 | 2700 | 2860 | 2280 | 2990 | 730 | 2300 | GI50 [7]: 1250 nM; GI50 [20]: 3000 nM; GI50 [23]: 2380 nM; GI50 [24]: 1680 nM; GI50 [25]: 2170 nM; GI50 [26]: 1020 nM; GI50 [27]: 1670 nM; GI50 [28]: 2240 nM; GI50 [29]: 1800 nM; GI50 [30]: 1740 nM; GI50 [31]: 1990 nM
